The source of these data is ChEMBL document CHEMBL1201862, “PubChem BioAssay data set” (2004).

Molecules are shown by their SMILES.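 Following 48 hours of exposure in 96-well plates, responses at five concentrations were used to interpolate endpoints linearly. GI50: concentration for 50% inhibition of growth.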 The source made the active and inactive calls. No stated cut-off is given here; in the data, active = GI50 up to about 1.1 µM and inactive = higher.

Some test systems named below: A498; ACHN; CCRF-CEM; HCC 2998; HOP-92; KM12; LOX IMVI; MCF7; MDA-MB-435; MOLT-4; Malme-3M; NCI-H23; NCI-H522; OVCAR-4; OVCAR-5; SK-MEL-28; SK-MEL-2; SR; TK-10; U-251.
Common to all, as to assay: growth of human tumour cells (NCI), 48 h

In the case of `O=c1c(-c2c(-c3ccccc3)oc3ccc(Cl)cc3c2=O)c(-c2ccccc2)oc2ccc(Cl)cc12`, the GI50 is > 100 µM (inactive) in the test with A498; > 75.9 µM (inactive) in the test with ACHN; > 100 µM (inactive) in the test with CCRF-CEM; > 100 µM (inactive) with HCC 2998; > 59.7 µM (inactive) with HOP-92; > 100 µM (inactive) with KM12. In addition, the GI50 was > 82.4 µM (inactive) in the test with LOX IMVI; > 100 µM (inactive) in the test with MCF7; > 100 µM (inactive) in the test on MDA-MB-435; > 100 µM (inactive) in the test on MOLT-4; > 100 µM (inactive) with Malme-3M; > 100 µM (inactive) in the test on NCI-H23. The GI50 in the test on NCI-H522, with OVCAR-4, in the test on OVCAR-5, in the test with SK-MEL-28, in the test with SK-MEL-2 and with SR was > 100 µM (inactive) throughout. In addition, the GI50 in the test on TK-10 and in the test with U-251 was > 100 µM (inactive) in each case.
For the compound `COS(C)(=O)=O` [METHANESULFONIC ACID METHYL ESTER], the GI50 in the test with A498, in the test with ACHN, with CCRF-CEM, in the test on HCC 2998, in the test on HOP-92 and with KM12 was > 2 µM (inactive) each time. For the same compound, the GI50 in the test on LOX IMVI, in the test on MCF7, in the test on MDA-MB-435, in the test on MOLT-4, with Malme-3M and in the test on NCI-H23 was > 2 µM (inactive) in each case. The GI50 with NCI-H522, in the test with OVCAR-4, in the test on OVCAR-5, in the test with SK-MEL-28, with SK-MEL-2 and with SR was > 2 µM (inactive) throughout. The GI50 in the test with TK-10 and with U-251 was > 2 µM (inactive) each time.
For `O=C1CC(NC(=O)C(F)(F)F)c2c1csc2Br` (stereo not given), the GI50 with A498 was 45.3 µM (inactive); in the test on ACHN, > 100 µM (inactive); in the test with CCRF-CEM, 33.6 µM (inactive); in the test with HCC 2998, > 100 µM (inactive); in the test on HOP-92 it was 35 µM (inactive); in the test on KM12, 3.03 µM (inactive). Further, the GI50 in the test on LOX IMVI is 60.3 µM (inactive); with MCF7 it was 2.94 µM (inactive); in the test on MDA-MB-435 it was 56.5 µM (inactive); in the test with MOLT-4, 31.5 µM (inactive); with Malme-3M, 18.8 µM (inactive); with NCI-H23, > 100 µM (inactive). Moreover, the GI50 in the test on NCI-H522 is 54.6 µM (inactive); in the test with OVCAR-4, 58.5 µM (inactive); in the test with OVCAR-5 it was 2.24 µM (inactive); with SK-MEL-28 it was > 100 µM (inactive); with SK-MEL-2, > 100 µM (inactive); in the test on SR, 36.9 µM (inactive). Besides, the GI50 in the test with TK-10 is 4.91 µM (inactive); with U-251, > 100 µM (inactive).
As to `O=C1O/C(=C\c2ccc(O)c(Br)c2)C(c2ccc(O)cc2)=C1Cl`, the GI50 with A498 was 25.3 µM (inactive); with ACHN it was 49.9 µM (inactive); in the test with CCRF-CEM, 0.849 µM (active); in the test with HCC 2998, 39.1 µM (inactive); in the test on HOP-92, 37.4 µM (inactive); in the test on KM12, 34.2 µM (inactive). Further, the GI50 is 42.2 µM (inactive) with LOX IMVI; 19.2 µM (inactive) in the test with MCF7; 33.3 µM (inactive) in the test with MDA-MB-435; 65.8 µM (inactive) with MOLT-4; 38.5 µM (inactive) in the test with Malme-3M; 22.4 µM (inactive) in the test on NCI-H23. Moreover, the GI50 was 26.5 µM (inactive) with NCI-H522; 40 µM (inactive) in the test with OVCAR-4; 51.3 µM (inactive) in the test on OVCAR-5; > 100 µM (inactive) in the test with SK-MEL-28; 40.1 µM (inactive) with SK-MEL-2; 35.1 µM (inactive) with SR. Further, the GI50 is 45.6 µM (inactive) in the test with TK-10 and 44.8 µM (inactive) with U-251.
Take `CCCCCCCCCCCCCCCCCCN(C)C(COC)COP(=O)([O-])OCC[N+](C)(C)C` (stereo not given): the GI50 in the test with A498 was 7.38 µM (inactive); in the test with ACHN, 11.9 µM (inactive); with CCRF-CEM, 2.18 µM (inactive); in the test on HCC 2998 it was 1.66 µM (inactive); with HOP-92 it was 1.89 µM (inactive); in the test with KM12 it was 1.66 µM (inactive). Also, the GI50 with LOX IMVI is 4.49 µM (inactive); in the test on MCF7 it was 10.1 µM (inactive); in the test on MDA-MB-435, 15.6 µM (inactive); in the test on MOLT-4, 1.82 µM (inactive); in the test on Malme-3M it was 14.9 µM (inactive); in the test with NCI-H23, 8.45 µM (inactive). The GI50 in the test with NCI-H522 is 2.69 µM (inactive); in the test on OVCAR-4 it was 3.69 µM (inactive); with OVCAR-5 it was 2.34 µM (inactive); in the test with SK-MEL-28 it was 18.5 µM (inactive); with SK-MEL-2 it was 18.7 µM (inactive); with SR, 2.23 µM (inactive). In addition, the values for the GI50 with TK-10 and in the test with U-251 were 1.84 µM (inactive) and 1.97 µM (inactive), respectively.
In the case of `O=C1CCCC/C1=C(\Br)I`, the GI50 is 19.4 µM (inactive) in the test with A498; 16.1 µM (inactive) in the test on ACHN; 1.77 µM (inactive) in the test on CCRF-CEM; 4.95 µM (inactive) in the test with HCC 2998; 17.9 µM (inactive) in the test with HOP-92; 17.1 µM (inactive) with KM12. In addition, the GI50 with LOX IMVI is 16.7 µM (inactive); with MCF7, 12.8 µM (inactive); with MDA-MB-435 it was 15.1 µM (inactive); in the test with MOLT-4, 2.11 µM (inactive); in the test on Malme-3M, 5.5 µM (inactive); in the test with NCI-H23 it was 10.1 µM (inactive). Further, the GI50 in the test on NCI-H522 was 1.56 µM (inactive); with OVCAR-4, 15.4 µM (inactive); in the test with OVCAR-5, 18.8 µM (inactive); with SK-MEL-28, 15.7 µM (inactive); in the test on SK-MEL-2, 22.3 µM (inactive); in the test on SR, 2.67 µM (inactive). The figures for the GI50 with TK-10 and in the test with U-251 were 13.9 µM (inactive) and 18 µM (inactive), respectively.
As for `O=C1C(N2CCN(c3ccccn3)CC2)=C(Cl)C(=O)c2ncccc21`, the GI50 in the test with A498 is 5.07 µM (inactive); with ACHN, 2.14 µM (inactive); with CCRF-CEM, 1.32 µM (inactive); in the test on HCC 2998 it was > 4.63 µM (inactive); with HOP-92 it was 1.58 µM (inactive); in the test on KM12 it was > 4.33 µM (inactive). The GI50 with LOX IMVI was 2.22 µM (inactive); in the test with MCF7, 1.76 µM (inactive); with MDA-MB-435, > 3.74 µM (inactive); in the test on MOLT-4, 1.83 µM (inactive); with Malme-3M it was 1.3 µM (inactive); in the test with NCI-H23, 1.85 µM (inactive). Further, the GI50 is 0.142 µM (active) with NCI-H522; 0.637 µM (active) in the test with OVCAR-4; > 10 µM (inactive) in the test on OVCAR-5; 2.89 µM (inactive) in the test with SK-MEL-28; 2.31 µM (inactive) in the test with SK-MEL-2; 2.28 µM (inactive) in the test on SR. Further, the GI50 in the test on TK-10 was 3.24 µM (inactive); in the test on U-251 it was > 10 µM (inactive).
